The values that follow come from paper PMC11645189 (ACS infectious diseases, 2024).

Experiment [1] concerns P. falciparum stage V gametocytes. Kind of experiment: gametocytocidal assay using late-stage gametocytes. In kind it is cell-based. As to conditions: Plasmodium falciparum, read-out: sexual blood-stage vs. P. falciparum stage V gametocytes IC50.
The next experiment relates to P. falciparum D6. As to conditions: read-out: asexual blood-stage vs. P. falciparum D6 IC50; cited from earlier work.
In a further experiment the test system is P. yoelii. Briefly: in vivo blood-stage efficacy in the P. yoelii mouse model. Set-up: species or system Plasmodium yoelii.

One may read the IC50 as the point on the concentration scale where inhibition reaches its midpoint. As for `CN(C)c1ccc2nc3ccc(=[N+](C)C)cc-3sc2c1` [methylene blue], the 50% inhibitory concentration (IC50) in experiment [1] was 143 nM.

Consider `O=C1C(O)=C([C@H]2CC[C@H](c3ccc(Cl)cc3)CC2)C(=O)c2ccccc21` [ATQ, Atovaquone], for which the concentration for half-maximal inhibition (IC50) in the experiment with P. falciparum D6 was 0.1 nM. For the compound `CCN(CC)CCCC(C)Nc1ccnc2cc(Cl)ccc12` (stereo not shown) [CQ, chloroquine], the “in vivo %parasitemia reduction vs. controls on day 5” value in the experiment on P. yoelii (25 mg/kg/4d oral) and in the experiment on P. yoelii (50 mg/kg/4d oral) was 100% each time.
